Structures can show the parent of a compound that is named as a salt.
Target: T1, 5-HT uptake (Rattus norvegicus, UniProt P31652)
T1 construct: In the serotonin uptake experiment cortex was used as tissue; from tissue; host or cells: frontal cortex of male Wistar rats
Assay: Serotonin uptake experiment (tritiated serotonin, cortex)
Format: biochemical
Conditions: cortex tissue; ligand tritiated serotonin; non-specific ligand fluoxetine (100 μM); read-out: Inhibition of 5-HT uptake, IC50
Protocol: (§1) Human cloned receptors or frontal cortex preparations of male Wistar rats weighing 120-200 g were used for the experiments. The protein contents of membrane preparations were determined according to the method of Lowry (1951).
(§2) In the course of 5-HT7 receptor binding studies the applied tissue was CHO cell culture, the ligand was ^3H-LSD, and for the non-specific binding clozapine (25 μM) was used as ligand. In the serotonin uptake experiment cortex was used as tissue. As ligand tritiated serotonin, as non-specifically binding ligand fluoxetine (100 μM) was applied.
(§3) IC50 is the concentration where the difference between whole binding and non-specific binding in the presence of 10 μM serotonin creatinine sulfate is 50%. The compounds with an IC50 value smaller than 100 nmol were considered effective in this test.

T1 sequence (P31652 whole entry): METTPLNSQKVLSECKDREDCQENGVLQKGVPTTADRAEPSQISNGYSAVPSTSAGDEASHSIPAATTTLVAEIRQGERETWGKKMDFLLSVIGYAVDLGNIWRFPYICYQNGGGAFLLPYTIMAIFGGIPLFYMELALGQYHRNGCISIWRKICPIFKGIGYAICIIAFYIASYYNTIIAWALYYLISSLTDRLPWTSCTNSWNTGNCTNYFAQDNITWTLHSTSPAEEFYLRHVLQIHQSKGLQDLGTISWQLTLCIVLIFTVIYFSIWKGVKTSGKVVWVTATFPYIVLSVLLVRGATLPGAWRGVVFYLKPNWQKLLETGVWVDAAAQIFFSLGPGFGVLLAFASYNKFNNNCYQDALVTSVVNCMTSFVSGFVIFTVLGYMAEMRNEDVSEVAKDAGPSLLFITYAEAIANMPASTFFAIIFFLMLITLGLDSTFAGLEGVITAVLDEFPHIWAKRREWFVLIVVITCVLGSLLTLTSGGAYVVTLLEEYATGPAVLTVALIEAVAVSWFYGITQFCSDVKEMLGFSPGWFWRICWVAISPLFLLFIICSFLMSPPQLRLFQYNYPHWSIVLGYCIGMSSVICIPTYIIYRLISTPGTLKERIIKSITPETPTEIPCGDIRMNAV

SMILES | IC50 [nM]
O=C1Nc2ccccc2C1CCCCN1CC=C(c2ccc(Cl)cc2)CC1 (centres unmarked) [Example 13, 3-{4-[4-(4-Chlorophenyl)-1,2,3,6-tetrahydro-pyridin-1-yl]-butyl}-1,3-dihydro-2H-indol-2-one] | < 100
O=C1Nc2ccc(F)cc2C1CCCCN1CC=C(c2cccc(C(F)(F)F)c2)CC1 (centres unmarked) [Example 14, 5-Fluoro-3-{4-[4-(3-trifluoromethyl-phenyl)-1,2,3,6-tetrahydropyridin-1-yl]-butyl}-1,3-dihydro-2H-indol-2-one monohydrochloride] | < 100

Tested on: not given
Assay: not given
Conditions: not given

SMILES | melting point [°C]
O=C1Nc2ccccc2C1CCCCN1CC=C(c2ccccc2)CC1 (centres unmarked) | 121 to 126
O=C1Nc2ccc(F)cc2C1CCCCN1CCc2sccc2C1 (centres unmarked) (as salt: hydrochloride) [Example 7, 3-[4-(6,7-Dihydro-4H-thieno[3,2-c]pyridin-5-yl)-butyl]-5-fluoro-1,3-dihydro-2H-indol-2-one monohydrochloride] | 192 to 194
O=C1Nc2ccccc2C1CCCCN1CCc2sc(Cl)cc2C1 (centres unmarked) (as salt: hydrochloride) [Example 8, 3-[4-(2-Chloro-6,7-dihydro-4H-thieno[3,2-c]-pyridin-5-yl)-butyl]-1,3-dihydro-2H-indol-2-one monohydrochloride] | 103 to 106
O=C1Nc2cc(F)ccc2C1CCCCN1CCc2sccc2C1 (centres unmarked) (as salt: hydrochloride) [Example 9, 3-[4-(6,7-Dihydro-4H-thieno[3,2-c]pyridin-5-yl)-butyl]-6-fluoro-1,3-dihydro-2H-indol-2-one mono-hydrochloride] | 194 to 197
O=C1Nc2cc(F)ccc2C1CCCCN1CCc2sc(Cl)cc2C1 (centres unmarked) (as salt: hydrochloride) [Example 10, 3-[4-(2-Chloro-6,7-dihydro-4H-thieno[3,2-c]-pyridin-5-yl)-butyl]-6-fluoro-1,3-dihydro-2H-indol-2-one monohydrochloride] | 214 to 216
O=C1Nc2ccc(F)cc2C1CCCCN1CCc2sc(Cl)cc2C1 (centres unmarked) (as salt: hydrochloride) [Example 11, 3-[4-(2-Chloro-6,7-dihydro-4H-thieno[3,2-c]-pyridin-5-yl)-butyl]-5-fluoro-1,3-dihydro-2H-indol-2-one monohydrochloride] | 161 to 163
O=C1Nc2cc(F)ccc2C1CCCCN1CC=C(c2cccc(C(F)(F)F)c2)CC1 (centres unmarked) (as salt: hydrochloride) [Example 12, 6-Fluoro-3-{4-[4-(3-trifluoromethyl-phenyl)-1,2,3,6-tetrahydropyridin-1-yl]-butyl}-1,3-dihydro-2H-indol-2-one monohydrochloride] | 203 to 205
O=C1Nc2ccc(F)cc2C1CCCCN1CC=C(c2cccc(C(F)(F)F)c2)CC1 (centres unmarked) (as salt: hydrochloride) [Example 14, 5-Fluoro-3-{4-[4-(3-trifluoromethyl-phenyl)-1,2,3,6-tetrahydropyridin-1-yl]-butyl}-1,3-dihydro-2H-indol-2-one monohydrochloride] | 201 to 204
O=C1Nc2ccccc2C1CCCCN1CC=C(c2cccc(C(F)(F)F)c2)CC1 (centres unmarked) (as salt: oxalate) [Example 5, 3-{4-[4-(3-Trifluoromethyl-phenyl)-1,2,3,6-tetrahydropyridin-1-yl]-butyl}-1,3-dihydro-2H-indol-2-one monooxalate] | 159 to 161
O=C1Nc2ccccc2C1CCCCN1CCc2sccc2C1 (centres unmarked) (as salt: oxalate) [Example 6, 3-[4-(6,7-Dihydro-4H-thieno[3,2-c]pyridin-5-yl)-butyl]-1,3-dihydro-2H-indol-2-one monooxalate] | 168 to 170
O=C1Nc2ccccc2C1CCCCN1CC=C(c2ccc(Cl)cc2)CC1 (centres unmarked) [Example 13, 3-{4-[4-(4-Chlorophenyl)-1,2,3,6-tetrahydro-pyridin-1-yl]-butyl}-1,3-dihydro-2H-indol-2-one] | 122 to 124

Target: T2, 5-HT7 receptor (Homo sapiens, UniProt P34969)
T2 construct: expressed in transfected cells; host or cells: CHO cell culture
Assay: 5-HT7 receptor binding (3H-LSD, CHO cell culture)
Conditions: ligand 3H-LSD, non-specific binding clozapine (25 μM), read-out: Inhibition of 5-HT7 receptor binding, IC50
Protocol: as §1, §2, §3

T2 sequence (P34969 whole entry): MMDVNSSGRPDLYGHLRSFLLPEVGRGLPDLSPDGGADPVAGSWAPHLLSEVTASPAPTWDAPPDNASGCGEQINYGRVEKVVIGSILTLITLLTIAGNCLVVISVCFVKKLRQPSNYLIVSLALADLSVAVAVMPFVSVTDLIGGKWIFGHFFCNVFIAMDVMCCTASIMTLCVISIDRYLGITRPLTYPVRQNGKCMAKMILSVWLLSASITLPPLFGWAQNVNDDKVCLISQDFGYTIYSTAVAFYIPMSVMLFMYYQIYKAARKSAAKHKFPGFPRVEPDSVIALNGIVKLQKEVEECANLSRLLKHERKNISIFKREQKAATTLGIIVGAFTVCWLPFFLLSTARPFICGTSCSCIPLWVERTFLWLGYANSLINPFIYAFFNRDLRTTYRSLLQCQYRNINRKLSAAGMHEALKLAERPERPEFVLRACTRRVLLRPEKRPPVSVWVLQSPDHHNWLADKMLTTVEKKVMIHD

SMILES | IC50 [nM]
O=C1Nc2ccccc2C1CCCCN1CC=C(c2cccc(C(F)(F)F)c2)CC1 (centres unmarked) [Example 5, 3-{4-[4-(3-Trifluoromethyl-phenyl)-1,2,3,6-tetrahydropyridin-1-yl]-butyl}-1,3-dihydro-2H-indol-2-one monooxalate] | < 100
O=C1Nc2ccccc2C1CCCCN1CCc2sccc2C1 (centres unmarked) [Example 6, 3-[4-(6,7-Dihydro-4H-thieno[3,2-c]pyridin-5-yl)-butyl]-1,3-dihydro-2H-indol-2-one monooxalate] | < 100
O=C1Nc2ccc(F)cc2C1CCCCN1CCc2sccc2C1 (centres unmarked) [Example 7, 3-[4-(6,7-Dihydro-4H-thieno[3,2-c]pyridin-5-yl)-butyl]-5-fluoro-1,3-dihydro-2H-indol-2-one monohydrochloride] | < 100
O=C1Nc2ccccc2C1CCCCN1CCc2sc(Cl)cc2C1 (centres unmarked) [Example 8, 3-[4-(2-Chloro-6,7-dihydro-4H-thieno[3,2-c]-pyridin-5-yl)-butyl]-1,3-dihydro-2H-indol-2-one monohydrochloride] | < 100
O=C1Nc2cc(F)ccc2C1CCCCN1CCc2sccc2C1 (centres unmarked) [Example 9, 3-[4-(6,7-Dihydro-4H-thieno[3,2-c]pyridin-5-yl)-butyl]-6-fluoro-1,3-dihydro-2H-indol-2-one mono-hydrochloride] | < 100
O=C1Nc2cc(F)ccc2C1CCCCN1CCc2sc(Cl)cc2C1 (centres unmarked) [Example 10, 3-[4-(2-Chloro-6,7-dihydro-4H-thieno[3,2-c]-pyridin-5-yl)-butyl]-6-fluoro-1,3-dihydro-2H-indol-2-one monohydrochloride] | < 100
O=C1Nc2ccc(F)cc2C1CCCCN1CCc2sc(Cl)cc2C1 (centres unmarked) [Example 11, 3-[4-(2-Chloro-6,7-dihydro-4H-thieno[3,2-c]-pyridin-5-yl)-butyl]-5-fluoro-1,3-dihydro-2H-indol-2-one monohydrochloride] | < 100
O=C1Nc2cc(F)ccc2C1CCCCN1CC=C(c2cccc(C(F)(F)F)c2)CC1 (centres unmarked) [Example 12, 6-Fluoro-3-{4-[4-(3-trifluoromethyl-phenyl)-1,2,3,6-tetrahydropyridin-1-yl]-butyl}-1,3-dihydro-2H-indol-2-one monohydrochloride] | < 100
O=C1Nc2ccccc2C1CCCCN1CC=C(c2ccc(Cl)cc2)CC1 (centres unmarked) [Example 13, 3-{4-[4-(4-Chlorophenyl)-1,2,3,6-tetrahydro-pyridin-1-yl]-butyl}-1,3-dihydro-2H-indol-2-one] | < 100
O=C1Nc2ccc(F)cc2C1CCCCN1CC=C(c2cccc(C(F)(F)F)c2)CC1 (centres unmarked) [Example 14, 5-Fluoro-3-{4-[4-(3-trifluoromethyl-phenyl)-1,2,3,6-tetrahydropyridin-1-yl]-butyl}-1,3-dihydro-2H-indol-2-one monohydrochloride] | < 100

Reference: patent US20090306144A1, “PYRIDINE DERIVATIVES OF ALKYL OXINDOLES AS 5-HT7 RECEPTOR ACTIVE AGENTS” (priority 2004, published 2009)
